Values joined by “and” are separate entries in the source; they are usually repeats but may differ in a detail not shown here. Identical values can stand only once.
Experiments:
[1] = Liquid, Closed cell (Static) method
[2] = molar heat capacity at constant pressure; settings: 100 kPa, Liquid, Extra sensitive DSC

CCN1CCOCC1 [4-ethylmorpholine]
Settings | molar heat capacity at constant pressure [J/K/mol] | vapor or sublimation pressure
[1], 243.11 K | – | 0.01727 kPa
[1], 243.12 K | – | 0.01728 kPa and 0.01725 kPa
[1], 248.15 K | – | 0.0276 kPa and 0.02761 kPa
[1], 253.15 K | – | 0.0431 kPa and 0.04308 kPa
[1], 253.16 K | – | 0.04305 kPa
[1], 258.15 K | – | 0.06592 kPa
[1], 258.16 K | – | 0.06592 kPa and 0.06589 kPa
[1], 263.16 K | – | 0.09902 kPa and 0.09898 kPa and 0.09893 kPa
[1], 268.16 K | – | 0.1459 kPa and 0.146 kPa
[1], 273.17 K | – | 0.2112 kPa and 0.2111 kPa
[1], 278.16 K | – | 0.3025 kPa
[1], 278.17 K | – | 0.3027 kPa and 0.3026 kPa
[1], 283.17 K | – | 0.4244 kPa and 0.4243 kPa
[1], 288.17 K | – | 0.5882 kPa and 0.5883 kPa and 0.5881 kPa
[1], 293.16 K | – | 0.8046 kPa and 0.8045 kPa
[1], 298.17 K | – | 1.086 kPa and 1.085 kPa
[2], 270 K | 198.1 | –
[2], 275 K | 199.6 | –
[2], 280 K | 201.1 | –
[2], 285 K | 202.8 | –
[2], 290 K | 204.5 | –
[2], 295 K | 206.4 | –
[2], 300 K | 208.2 | –
[2], 305 K | 209.9 | –
[2], 310 K | 211.6 | –
[2], 315 K | 213.4 | –
[2], 320 K | 215.5 | –
[2], 325 K | 217.7 | –
[2], 330 K | 219.9 | –
[2], 335 K | 221.9 | –
[2], 340 K | 223.8 | –
[2], 345 K | 225.9 | –
[2], 350 K | 228 | –
[2], 355 K | 230.2 | –
